Patent publication US12187746B2, “C26-linked rapamycin analogs as mTOR inhibitors” (Revolution Medicines, Inc., priority 2018, dated 2025)

Assays:
P-Akt (S473) = assay: Cell based AlphaLISA assay, inhibition of P-Akt (S473) in MDA-MB-468 cells; conditions: Homo sapiens, 4 h, 0.017-1,000 nM, two to four hours at 37° C., AlphaLisa SureFire Ultra, read-out: pIC50 for Inhibition of mTORC1 and mTORC2 Substrate Phosphorylation, p-AKT1/2/3-(S473) (converted)
Description: (§1) Cell Based AlphaLISA Assays For Determining IC50 For Inhibition of P-Akt (S473), P-4E-BP1 (T37/46), and P-P70S6K (T389) in MDA-MB-468 Cells
(§2) mTOR Kinase Cellular Assay
(§3) To measure functional activity of mTORC1 and mTORC2 in cells the phosphorylation of 4EBP1 (Thr37/46) and P70S6K (Thr389), and AKT1/2/3 (Ser473) was monitored using AlphaLisa SureFire Ultra Kits (Perkin Elmer). […] Incubations are terminated by removal of the assay buffer and addition of lysis buffer provided with the assay kit. Samples are processed according to the manufacturer's instructions. The Alpha signal from the respective phosphoproteins is measured in duplicate using a microplate reader (Envision, Perkin-Elmer or Spectramax M5, Molecular Devices). Inhibitor concentration response curves are analyzed using normalized IC50 regression curve fitting with control based normalization.

P-4E-BP1 (T37/46) = assay: Cell based AlphaLISA assay, inhibition of P-4E-BP1 (T37/46) in MDA-MB-468 cells; conditions: Homo sapiens, 4 h, 0.017-1,000 nM, two to four hours at 37° C., AlphaLisa SureFire Ultra, read-out: pIC50 for Inhibition of mTORC1 and mTORC2 Substrate Phosphorylation, p-4E-BP1-(T37/46) (converted)
Description: as §1, §2, §3

P-P70S6K (T389) = assay: Cell based AlphaLISA assay, inhibition of P-P70S6K (T389) in MDA-MB-468 cells; conditions: Homo sapiens, 4 h, 0.017-1,000 nM, two to four hours at 37° C., AlphaLisa SureFire Ultra, read-out: pIC50 for Inhibition of mTORC1 and mTORC2 Substrate Phosphorylation, p-P70S6K-(T389) (converted)
Description: as §1, §2, §3

CO[C@H]1C[C@@H]2CC[C@@H](C)[C@@](O)(O2)C(=O)C(=O)N2CCCC[C@H]2C(=O)O[C@H]([C@H](C)C[C@@H]2CC[C@@H](O)[C@H](OC)C2)C[C@@H](O)[C@H](C)/C=C(\C)[C@@H](O)[C@@H](OC)C(=NOCC(=O)NCCOCCOCCOCCOCCOCCOCCC(=O)NCCCCn2nc(-c3cnc4[nH]ccc4c3)c3c(N)ncnc32)[C@H](C)C[C@H](C)/C=C/C=C/C=C/1C [Example 7]
IC50 (P-Akt (S473)): > 1000 nM | IC50 (P-4E-BP1 (T37/46)): 3.16 to 31.6 nM | IC50 (P-P70S6K (T389)): < 1 nM

CO[C@H]1C[C@@H]2CC[C@@H](C)[C@@](O)(O2)C(=O)C(=O)N2CCCC[C@H]2C(=O)O[C@H]([C@H](C)C[C@@H]2CC[C@@H](O)[C@H](OC)C2)C[C@@H](O)[C@H](C)/C=C(\C)[C@@H](O)[C@@H](OC)C(=NOCC(=O)N2CCc3nc(N4CCN(c5ncc(C(=O)NCCOCCOCCC(=O)NCCCCn6nc(-c7ccc8oc(N)nc8c7)c7c(N)ncnc76)cn5)CC4)ncc3C2)[C@H](C)C[C@H](C)/C=C/C=C/C=C/1C [Example 16]
IC50 (P-Akt (S473)): > 1000 nM | IC50 (P-4E-BP1 (T37/46)): 3.16 to 31.6 nM | IC50 (P-P70S6K (T389)): 1 to 10 nM

CO[C@H]1C[C@@H]2CC[C@@H](C)[C@@](O)(O2)C(=O)C(=O)N2CCCC[C@H]2C(=O)O[C@H]([C@H](C)C[C@@H]2CC[C@@H](O)[C@H](OC)C2)C[C@@H](O)[C@H](C)/C=C(\C)[C@@H](O)[C@@H](OC)C(=NOCC(=O)NCc2cnc(N3CCN(C(=O)CN(C)CC(=O)NCCOCCOCCC(=O)NCCCCn4nc(-c5cnc6[nH]ccc6c5)c5c(N)ncnc54)CC3)nc2)[C@H](C)C[C@H](C)/C=C/C=C/C=C/1C [Example 22]
IC50 (P-Akt (S473)): > 1000 nM | IC50 (P-4E-BP1 (T37/46)): 31.6 to 1000 nM | IC50 (P-P70S6K (T389)): 1 to 10 nM

CO[C@H]1C[C@@H]2CC[C@@H](C)[C@@](O)(O2)C(=O)C(=O)N2CCCC[C@H]2C(=O)O[C@H]([C@H](C)C[C@@H]2CC[C@@H](O)[C@H](OC)C2)C[C@@H](O)[C@H](C)/C=C(\C)[C@@H](O)[C@@H](OC)C(=NOCC(=O)NCCOCCOCCOCCOCCOCCOCCOCCOCCC(=O)N2CCc3cc(Cn4nc(-c5ccc6oc(N)nc6c5)c5c(N)ncnc54)ccc3C2)[C@H](C)C[C@H](C)/C=C/C=C/C=C/1C [Example 4]
IC50 (P-Akt (S473)): 31.6 to 1000 nM | IC50 (P-4E-BP1 (T37/46)): 3.16 to 31.6 nM | IC50 (P-P70S6K (T389)): < 1 nM

CO[C@H]1C[C@@H]2CC[C@@H](C)[C@@](O)(O2)C(=O)C(=O)N2CCCC[C@H]2C(=O)O[C@H]([C@H](C)C[C@@H]2CC[C@@H](O)[C@H](OC)C2)C[C@@H](O)[C@H](C)/C=C(\C)[C@@H](O)[C@@H](OC)C(=NOCC(=O)NCCOCCOCCOCCOCCOCCOCCC(=O)NCCCCn2nc(-c3ccc4oc(N)nc4c3)c3c(N)ncnc32)[C@H](C)C[C@H](C)/C=C/C=C/C=C/1C [Example 2]
IC50 (P-Akt (S473)): 31.6 to 1000 nM | IC50 (P-4E-BP1 (T37/46)): 3.16 to 31.6 nM | IC50 (P-P70S6K (T389)): < 1 nM

COc1ccc(-c2ccc3ncc4c(c3c2)n(-c2ccc(N3CCN(c5ncc(CNC(=O)CCOCCOCCOCCOCCOCCOCCNC(=O)CON=C6[C@H](C)C[C@H](C)/C=C/C=C/C=C(\C)[C@@H](OC)C[C@@H]7CC[C@@H](C)[C@@](O)(O7)C(=O)C(=O)N7CCCC[C@H]7C(=O)O[C@H]([C@H](C)C[C@@H]7CC[C@@H](O)[C@H](OC)C7)C[C@@H](O)[C@H](C)/C=C(\C)[C@@H](O)[C@H]6OC)cn5)CC3)c(C(F)(F)F)c2)c(=O)n4C)cn1 [Example 14]
IC50 (P-Akt (S473)): 31.6 to 1000 nM | IC50 (P-4E-BP1 (T37/46)): 3.16 to 31.6 nM | IC50 (P-P70S6K (T389)): < 1 nM

CO[C@H]1C[C@@H]2CC[C@@H](C)[C@@](O)(O2)C(=O)C(=O)N2CCCC[C@H]2C(=O)O[C@H]([C@H](C)C[C@@H]2CC[C@@H](O)[C@H](OC)C2)C[C@@H](O)[C@H](C)/C=C(\C)[C@@H](O)[C@@H](OC)C(=NOCC(=O)NCc2cnc(N3CCN(c4ncc(C(=O)NCCOCCC(=O)NCCCCn5nc(-c6ccc7oc(N)nc7c6)c6c(N)ncnc65)c(N)n4)CC3)nc2)[C@H](C)C[C@H](C)/C=C/C=C/C=C/1C [Example 51]
IC50 (P-Akt (S473)): > 1000 nM | IC50 (P-4E-BP1 (T37/46)): > 1000 nM | IC50 (P-P70S6K (T389)): 10 to 1000 nM

CO[C@H]1C[C@@H]2CC[C@@H](C)[C@@](O)(O2)C(=O)C(=O)N2CCCC[C@H]2C(=O)O[C@H]([C@H](C)C[C@@H]2CC[C@@H](O)[C@H](OC)C2)C[C@@H](O)[C@H](C)/C=C(\C)[C@@H](O)[C@@H](OC)C(=NOCC(=O)NCc2cnc(N3CCN(C(=O)CCOCCN4CCN(c5ncc(C(=O)N6CCC(n7nc(-c8ccc9oc(N)nc9c8)c8c(N)ncnc87)CC6)cn5)CC4)CC3)nc2)[C@H](C)C[C@H](C)/C=C/C=C/C=C/1C [Example 32]
IC50 (P-Akt (S473)): 3.16 to 31.6 nM | IC50 (P-4E-BP1 (T37/46)): 3.16 to 31.6 nM | IC50 (P-P70S6K (T389)): < 1 nM

CO[C@H]1C[C@@H]2CC[C@@H](C)[C@@](O)(O2)C(=O)C(=O)N2CCCC[C@H]2C(=O)O[C@H]([C@H](C)C[C@@H]2CC[C@@H](O)[C@H](OC)C2)C[C@@H](O)[C@H](C)/C=C(\C)[C@@H](O)[C@@H](OC)C(=NOCC(=O)NCc2cnc(N3CCN(c4ncc(C(=O)NCCOCCOCCOCCC(=O)N5CCc6cc(Cn7nc(-c8cnc9[nH]ccc9c8)c8c(N)ncnc87)ccc6C5)cn4)CC3)nc2)[C@H](C)C[C@H](C)/C=C/C=C/C=C/1C [Example 21]
IC50 (P-Akt (S473)): > 1000 nM | IC50 (P-4E-BP1 (T37/46)): 3.16 to 31.6 nM | IC50 (P-P70S6K (T389)): 1 to 10 nM

CO[C@H]1C[C@@H]2CC[C@@H](C)[C@@](O)(O2)C(=O)C(=O)N2CCCC[C@H]2C(=O)O[C@H]([C@H](C)C[C@@H]2CC[C@@H](O)[C@H](OC)C2)C[C@@H](O)[C@H](C)/C=C(\C)[C@@H](O)[C@@H](OC)C(=NOCC(=O)NCc2cnc(N3CCN(c4ncc(C(=O)NCCOCCOCCOCCC(=O)NCCCCn5nc(-c6ccc7oc(N)nc7c6)c6c(N)ncnc65)cn4)CC3)nc2)[C@H](C)C[C@H](C)/C=C/C=C/C=C/1C [Example 20]
IC50 (P-Akt (S473)): > 1000 nM | IC50 (P-4E-BP1 (T37/46)): 3.16 to 31.6 nM | IC50 (P-P70S6K (T389)): 1 to 10 nM

CO[C@H]1C[C@@H]2CC[C@@H](C)[C@@](O)(O2)C(=O)C(=O)N2CCCC[C@H]2C(=O)O[C@H]([C@H](C)C[C@@H]2CC[C@@H](O)[C@H](OC)C2)CC(=O)[C@H](C)/C=C(\C)[C@@H](O)[C@@H](OC)C(=O)[C@H](C)C[C@H](C)/C=C/C=C/C=C/1C [Rapamycin, (3S,6R,7E,9R, 10R, 12R, 14S, 15E, 17E, 19E,21S,23S,26R,27R,34aS)-9, 10, 12, 13, 14,21,22,23,24,25,26,27,32,33,34,34a-hexadecahydro-9,27-dihydroxy-3-[(1R)-2-[(1 S,3 R,4R)-4-hydroxy-3-methoxycyclohexyl]-1-methylethyl]-10,21-dimethoxy-6,8,12,14,20,26-hexamethyl-23,27-epoxy-3H-pyrido[2,1-c][1,4]-oxaazacyclohentriacontine-1,5,11,28,29(4H,6H,31H)-pentone]
IC50 (P-Akt (S473)): > 1000 nM | IC50 (P-4E-BP1 (T37/46)): > 1000 nM | IC50 (P-P70S6K (T389)): < 1 nM

CO[C@H]1C[C@@H]2CC[C@@H](C)[C@@](O)(O2)C(=O)C(=O)N2CCCC[C@H]2C(=O)O[C@H]([C@H](C)C[C@@H]2CC[C@@H](O)[C@H](OC)C2)C[C@@H](O)[C@H](C)/C=C(\C)[C@@H](O)[C@@H](OC)C(=NOCC(=O)NCc2cnc(N3CCN(C(=O)CCOCCN4CCN(C(=O)CN(C)CC(=O)N5CCc6cc(Cn7nc(-c8ccc9oc(N)nc9c8)c8c(N)ncnc87)ccc6C5)CC4)CC3)nc2)[C@H](C)C[C@H](C)/C=C/C=C/C=C/1C [Example 36]
IC50 (P-Akt (S473)): > 1000 nM | IC50 (P-4E-BP1 (T37/46)): 31.6 to 1000 nM | IC50 (P-P70S6K (T389)): 1 to 10 nM

CO[C@H]1C[C@@H]2CC[C@@H](C)[C@@](O)(O2)C(=O)C(=O)N2CCCC[C@H]2C(=O)O[C@H]([C@H](C)C[C@@H]2CC[C@@H](O)[C@H](OC)C2)C[C@@H](O)[C@H](C)/C=C(\C)[C@@H](O)[C@@H](OC)C(=NOCC(=O)NCCOCCOCCOCCOCCOCCOCCOCCOCCC(=O)NCCCCn2nc(-c3ccc4oc(N)nc4c3)c3c(N)ncnc32)[C@H](C)C[C@H](C)/C=C/C=C/C=C/1C [Example 1]
IC50 (P-Akt (S473)): 31.6 to 1000 nM | IC50 (P-4E-BP1 (T37/46)): 3.16 to 31.6 nM | IC50 (P-P70S6K (T389)): 1 to 10 nM

CC(C)n1nc(-c2ccc3oc(N)nc3c2)c2c(N)ncnc21 [MLN-128, MLN0128, reference compound]
IC50 (P-Akt (S473)): 3.16 to 31.6 nM | IC50 (P-4E-BP1 (T37/46)): 3.16 to 31.6 nM | IC50 (P-P70S6K (T389)): 1 to 10 nM

CO[C@H]1C[C@@H]2CC[C@@H](C)[C@@](O)(O2)C(=O)C(=O)N2CCCC[C@H]2C(=O)O[C@H]([C@H](C)C[C@@H]2CC[C@@H](O)[C@H](OC)C2)C[C@@H](O)[C@H](C)/C=C(\C)[C@@H](O)[C@@H](OC)C(=NOCC(=O)NCCOCCC(=O)NCc2cnc(N3CCN(C(=O)CCOCCN4CCN(c5ncc(C(=O)NCCCCn6nc(-c7cnc8[nH]ccc8c7)c7c(N)ncnc76)cn5)CC4)CC3)nc2)[C@H](C)C[C@H](C)/C=C/C=C/C=C/1C [Example 42]
IC50 (P-Akt (S473)): > 1000 nM | IC50 (P-4E-BP1 (T37/46)): 3.16 to 31.6 nM | IC50 (P-P70S6K (T389)): 1 to 10 nM

CO[C@H]1C[C@@H]2CC[C@@H](C)[C@@](O)(O2)C(=O)C(=O)N2CCCC[C@H]2C(=O)O[C@H]([C@H](C)C[C@@H]2CC[C@@H](O)[C@H](OC)C2)C[C@@H](O)[C@H](C)/C=C(\C)[C@@H](O)[C@@H](OC)C(=NOCC(=O)NCCOCCC(=O)NCc2cnc(N3CCN(C(=O)CCOCCN4CCN(c5ncc(C(=O)N6CCc7cc(Cn8nc(-c9ccc%10oc(N)nc%10c9)c9c(N)ncnc98)ccc7C6)cn5)CC4)CC3)nc2)[C@H](C)C[C@H](C)/C=C/C=C/C=C/1C [Example 44]
IC50 (P-Akt (S473)): 31.6 to 1000 nM | IC50 (P-4E-BP1 (T37/46)): 3.16 to 31.6 nM | IC50 (P-P70S6K (T389)): < 1 nM
